Reference: patent publication US12297190B2, “Modulators of STING (stimulator of interferon genes)” (PFIZER INC., priority 2019, dated 2025)

Target: R232-STING (Homo sapiens, UniProt Q86WV6, H232R)
Sequence (Q86WV6 155-341 H232R): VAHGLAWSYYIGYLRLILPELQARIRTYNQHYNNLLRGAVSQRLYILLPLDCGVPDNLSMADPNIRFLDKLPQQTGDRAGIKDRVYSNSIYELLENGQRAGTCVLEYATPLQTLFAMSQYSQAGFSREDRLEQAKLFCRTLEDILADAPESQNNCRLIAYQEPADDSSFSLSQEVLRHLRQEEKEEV

Substance | Ki
1-{2-[(2R,6S)-2,6-dimethylmorpholin-4-yl]ethyl}-4-[3-(1-ethyl-3-methyl-1H-pyrazol-5-yl)-1H-1,2,4-triazol-5-yl]-1H-indazole-6-carboxamide formic acid salt and 2-{2-[(2R,6S)-2,6-dimethylmorpholin-4-yl]ethyl}-4-[3-(1-ethyl-3-methyl-1H-pyrazol-5-yl)-1H-1,2,4-triazol-5-yl]-2H-indazole-6-carboxamide formic acid salt [D03 + D03′] | 314 nM
4-[3-(1-ethyl-3-methyl-1H-pyrazol-5-yl)-1H-1,2,4-triazol-5-yl]-1-{[1-(oxan-4-yl)azetidin-2-yl]methyl}-1H-indazole-6-carboxamide formic acid salt and 4-[3-(1-ethyl-3-methyl-1H-pyrazol-5-yl)-1H-1,2,4-triazol-5-yl]-2-{[1-(oxan-4-yl)azetidin-2-yl]methyl}-2H-indazole-6-carboxamide formic acid salt [D04 + D04′] | 331 nM
4-[3-(1-ethyl-3-methyl-1H-pyrazol-5-yl)-1H-1,2,4-triazol-5-yl]-1-[3-(morpholin-4-yl)propyl]-1H-indazole-6-carboxamide formic acid salt and 4-[3-(1-ethyl-3-methyl-1H-pyrazol-5-yl)-1H-1,2,4-triazol-5-yl]-2-[3-(morpholin-4-yl)propyl]-2H-indazole-6-carboxamide formic acid salt [D01 + D01′] | 323 nM
4-[3-(1-ethyl-3-methyl-1H-pyrazol-5-yl)-1H-1,2,4-triazol-5-yl]-1-[2-(morpholin-4-yl)ethyl]-1H-indazole-6-carboxamide formic acid salt and 4-[3-(1-ethyl-3-methyl-1H-pyrazol-5-yl)-1H-1,2,4-triazol-5-yl]-2-[2-(morpholin-4-yl)ethyl]-2H-indazole-6-carboxamide formic acid salt [D02 + D02′] | 175 nM
